Tests used:
Assay type in all cases: in vivo
[1] = tested on: pigweed (Amaranthus retroflexus); experiment: Test A preemergence; conditions: Preemergence; for Plant response rating, Pigweed: 125 g ai/ha, visual injury after approximately 10 d, 0 to 100 scale where 0 is no effect and 100 is complete control; for Pigweed plant response rating (0 to 100 scale, 0 is no effect, 100 is complete control): 500 g ai/ha, visual injury approx. 10 d
From the text: (§1) Seeds of plant species selected from barnyardgrass (Echinochloa crus-galli), Kochia (Kochia scoparia), ragweed (common ragweed, Ambrosia elatior), ryegrass, Italian (Italian ryegrass, Lolium multiflorum), crabgrass, large (Digitaria sanguinalis), giant foxtail (Setaria faberii), green foxtail (Setaria viridis), morningglory (Ipomoea spp.), pigweed (Amaranthus retroflexus), velvetleaf (Abutilon theophrasti), wheat (Triticum aestivum), and corn (Zea mays) were planted into a blend of loam soil and sand and treated preemergence with a directed soil spray using test chemicals formulated in anon-phytotoxic solvent mixture which included a surfactant.
(§2) At the same time, plants selected from these crop and weed species and also blackgrass (Alopecurus myosuroides), and Galium (catchweed bedstraw, Galium aparine) were planted in pots containing the same blend of loam soil and sand and treated with postemergence applications of test chemicals formulated in the same manner. Plants ranged in height from 2 to 10 cm and were in the one- to two-leaf stage for the postemergence treatment. Treated plants and untreated controls were maintained in a greenhouse for approximately 10 d, after which time all treated plants were compared to untreated controls and visually evaluated for injury. Plant response ratings, summarized in Table A, are based on a 0 to 100 scale where 0 is no effect and 100 is complete control. A dash (-) response means no test result.

[2] = tested on: giant foxtail (Setaria faberii); experiment: Test A preemergence; conditions: Preemergence; for Plant response rating, Foxtail, Giant: 125 g ai/ha, visual injury after approximately 10 d, 0 to 100 scale where 0 is no effect and 100 is complete control; for Foxtail, Giant plant response rating (0 to 100 scale, 0 is no effect, 100 is complete control): 500 g ai/ha, visual injury approx. 10 d
From the text: as §1, §2

[3] = tested on: Kochia (Kochia scoparia); experiment: Test A preemergence; conditions: Preemergence; for Plant response rating, Kochia: 125 g ai/ha, visual injury after approximately 10 d, 0 to 100 scale where 0 is no effect and 100 is complete control; for Kochia plant response rating (0 to 100 scale, 0 is no effect, 100 is complete control): 500 g ai/ha, visual injury approx. 10 d
From the text: as §1, §2

[4] = tested on: ragweed (common ragweed, Ambrosia elatior); experiment: Test A preemergence; conditions: Preemergence; for Plant response rating, Ragweed: 125 g ai/ha, visual injury after approximately 10 d, 0 to 100 scale where 0 is no effect and 100 is complete control; for Ragweed plant response rating (0 to 100 scale, 0 is no effect, 100 is complete control): 500 g ai/ha, visual injury approx. 10 d
From the text: as §1, §2

[5] = tested on: ryegrass, Italian (Italian ryegrass, Lolium multiflorum); experiment: Test A preemergence; conditions: Preemergence; for Plant response rating, Ryegrass, Italian: 125 g ai/ha, visual injury after approximately 10 d, 0 to 100 scale where 0 is no effect and 100 is complete control; for Ryegrass, Italian plant response rating (0 to 100 scale, 0 is no effect, 100 is complete control): 500 g ai/ha, visual injury approx. 10 d
From the text: as §1, §2

[6] = tested on: barnyardgrass (Echinochloa crus-galli); experiment: Test A preemergence; conditions: Preemergence; for Plant response rating, Barnyardgrass: 125 g ai/ha, visual injury after approximately 10 d, 0 to 100 scale where 0 is no effect and 100 is complete control; for Barnyardgrass plant response rating (0 to 100 scale, 0 is no effect, 100 is complete control): 500 g ai/ha, visual injury approx. 10 d
From the text: as §1, §2

[7] = tested on: blackgrass (Alopecurus myosuroides); experiment: Test A postemergence; conditions: for Blackgrass plant response rating: 125 g ai/ha, postemergence, visual injury rating on 0 to 100 scale (0 no effect, 100 complete control), approx. 10 d; for Plant response rating, Blackgrass: Postemergence, 500 g ai/ha, 0 to 100 scale where 0 is no effect and 100 is complete control
From the text: as §1, §2

[8] = tested on: pigweed (Amaranthus retroflexus); experiment: Test A postemergence
From the text: as §1, §2

[9] = tested on: giant foxtail (Setaria faberii); experiment: Test A postemergence
From the text: as §1, §2

[10] = tested on: corn (Zea mays); experiment: Test A postemergence
From the text: as §1, §2

[11] = tested on: Kochia (Kochia scoparia); experiment: Test A postemergence
From the text: as §1, §2

[12] = tested on: wheat (Triticum aestivum); experiment: Test A postemergence
From the text: as §1, §2

[13] = tested on: ragweed (common ragweed, Ambrosia elatior); experiment: Test A postemergence
From the text: as §1, §2

[14] = tested on: Galium (catchweed bedstraw, Galium aparine); experiment: Test A postemergence
From the text: as §1, §2

[15] = tested on: ryegrass, Italian (Italian ryegrass, Lolium multiflorum); experiment: Test A postemergence
From the text: as §1, §2

[16] = tested on: barnyardgrass (Echinochloa crus-galli); experiment: Test A postemergence; conditions: for Barnyardgrass plant response rating: 125 g ai/ha, postemergence, visual injury rating on 0 to 100 scale (0 no effect, 100 complete control), approx. 10 d; for Plant response rating, Barnyardgrass: Postemergence, 500 g ai/ha, 0 to 100 scale where 0 is no effect and 100 is complete control
From the text: as §1, §2

[17] = 125 g ai/ha, postemergence, visual injury rating on 0 to 100 scale (0 no effect, 100 complete control), approx. 10 d
[18] = Postemergence, 500 g ai/ha, 0 to 100 scale where 0 is no effect and 100 is complete control
[19] = 125 g ai/ha, postemergence, visual rating after approx. 10 d, 0 to 100 scale (0 no effect, 100 complete control)

| Compound | Plant response rating, Pigweed [1] | Pigweed plant response rating (0 to 100 scale, 0 is no effect, 100 is complete control) [1] | Plant response rating, Foxtail, Giant [2] | Foxtail, Giant plant response rating (0 to 100 scale, 0 is no effect, 100 is complete control) [2] | Plant response rating, Kochia [3] | Kochia plant response rating (0 to 100 scale, 0 is no effect, 100 is complete control) [3] | Plant response rating, Ragweed [4] | Ragweed plant response rating (0 to 100 scale, 0 is no effect, 100 is complete control) [4] | Plant response rating, Ryegrass, Italian [5] | Ryegrass, Italian plant response rating (0 to 100 scale, 0 is no effect, 100 is complete control) [5] | Plant response rating, Barnyardgrass [6] | Barnyardgrass plant response rating (0 to 100 scale, 0 is no effect, 100 is complete control) [6] | Blackgrass plant response rating [7] | Plant response rating, Blackgrass [7] | Plant response rating, Pigweed [8, 18] | Plant response rating, Foxtail, Giant [9, 18] | Plant response rating, Corn [10, 18] | Plant response rating, Kochia [11, 18] | Plant response rating, Wheat [12, 18] | Plant response rating, Ragweed [13, 18] | further results |
| --- | --- | --- | --- | --- | --- | --- | --- | --- | --- | --- | --- | --- | --- | --- | --- | --- | --- | --- | --- | --- | --- |
| O=C(Nc1ccccc1F)C1C(=O)N(C2C=CCCC2)CC1c1cccc(C(F)(F)F)c1 (stereo not drawn) [Compound 524] | 0 | 0 | 40 | 70 | 0 | 0 | 0 | 0 | 0 | 0 | 20 | 40 | 0 | 20 | 0 | 70 | 0 | 0 | 0 | 0 | Pigweed plant response rating [8, 17]: 0; Foxtail, Giant plant response rating [9, 17]: 30; Corn plant response rating [10, 17]: 0; Kochia plant response rating [11, 17]: 0; Wheat plant response rating [12, 17]: 0; Ragweed plant response rating [13, 17]: 0; Galium plant response rating [14, 17]: 0; Plant response rating, Galium [14, 18]: 0; Ryegrass, Italian plant response rating [15, 17]: 0; Plant response rating, Ryegrass, Italian [15, 18]: 0; Barnyardgrass plant response rating [16]: 30; Plant response rating, Barnyardgrass [16]: 70 |
| O=C(Nc1ccccc1F)C1C(=O)N(CC=CBr)CC1c1cccc(C(F)(F)F)c1 (stereo not drawn) [Compound 526] | 0 | 0 | 70 | 80 | 0 | 0 | 0 | 0 | 0 | 0 | 0 | 20 | 0 | 0 | 0 | 40 | 0 | 0 | 0 | 0 | Plant response rating, Pigweed [8, 19]: 0; Plant response rating, Foxtail, Giant [9, 19]: 20; Plant response rating, Corn [10, 19]: 0; Plant response rating, Kochia [11, 19]: 0; Plant response rating, Wheat [12, 19]: 0; Plant response rating, Ragweed [13, 19]: 0; Plant response rating, Galium [14, 19]: 0; Plant response rating, Galium [14, 18]: 0; Plant response rating, Ryegrass, Italian [15, 19]: 0; Plant response rating, Ryegrass, Italian [15, 18]: 0; Barnyardgrass plant response rating [16]: 10; Plant response rating, Barnyardgrass [16]: 20 |
| O=C(Nc1cccc(F)c1F)C1C(=O)N(CC=CBr)CC1c1cccc(C(F)(F)F)c1 (stereo not drawn) [Compound 527] | 0 | 0 | 80 | 80 | 0 | 0 | 0 | 0 | 0 | 0 | 0 | 20 | 0 | 0 | 0 | 20 | 0 | 0 | 0 | 0 | Plant response rating, Pigweed [8, 19]: 0; Plant response rating, Foxtail, Giant [9, 19]: 0; Plant response rating, Corn [10, 19]: 0; Plant response rating, Kochia [11, 19]: 0; Plant response rating, Wheat [12, 19]: 0; Plant response rating, Ragweed [13, 19]: 0; Plant response rating, Galium [14, 19]: 0; Plant response rating, Galium [14, 18]: 0; Plant response rating, Ryegrass, Italian [15, 19]: 0; Plant response rating, Ryegrass, Italian [15, 18]: 0; Barnyardgrass plant response rating [16]: 0; Plant response rating, Barnyardgrass [16]: 20 |

Source: patent publication US12077503B2, “Substituted cyclic amides and their use as herbicides” (FMC CORPORATION, priority 2015, dated 2024)
